“Also recorded” adds a separate entry of the source. Counter-ions that a name gives are not always drawn. Like-named read-outs stand apart in the source and are kept apart here.
Columns and labels:
[1] = system: K562 erytiroleukemia cells; details: Yan et al., 1995; cited from earlier work
[2] = system: chronic myelogenous leukemia; details: previously untreated chronic myelogenous leukemia; cited from earlier work
MCF-7-AdrR cells [3] = experiment: Cell proliferation (MTS) assay: adriamycin toxicity and chemosensitization
Excerpt: FIG. 15A and FIG. 15B. […] FIG. 15B: Glycosylceramide levels in MDR Cells following drug treatment. […] In order to avoid differences in [^3 H]glycosylceramide values which account for cell death, the same amount of total radioactive lipid from each sample was applied to TLC separation.
FIG. 16A and FIG. 16B. […] FIG. 16A: Effect of PPMP on cellular glycosylceramide levels. […] [^3 H]Glycosylceramide was quantitated as described in the legend to FIG. 9.
Vehicle (acetone, ethanol) was always added to control (minus drug) wells. The cytotoxic activity of a drug was determined using the Promega CellTiter 96™ AQueous MTS cell proliferation assay kit. Each experimental point was performed in six replicates. MTS/PMS solution (20 μl/well) was aliquoted into all wells, and the cells were incubated for 2-3 h, or until an O.D. of 0.9-1.0 was obtained as a highest reading. Thereafter, absorbence at 490 nm was recorded using an ELISA plate reader (Molecular Devices, San Diego, Calif.).

[4] = system: glycosylceramide synthesis in MCF-7-AdrR cells; experiment: Glycosylceramide levels in MDR cells following drug treatment, [3H]serine 48 h; assay type: cell-based; details: read-out: diminution in glycosylceramide formation, adriamycin alone
[5] = system: OVCAR-3 (MDR ovarian carcinoma); details: clinically relevant concentrations (Rogan et al., 1984); cited from earlier work
[6] = cited from earlier work
P388 and U937 cells = details: Bose et al., 1995; cited from earlier work
certain animal tumors = details: in vivo; cited from earlier work
[7] = system: MCF-7-doxorubicin resistant cells; details: Sachs et al., 1995; cited from earlier work
PKC = details: Sachs et al., 1995; cited from earlier work
MCF-7-AdrR cells [8] = experiment: Metabolism of sphinganine, MCF-7-AdrR cells (TLC charring); assay type: cell-based; details: 5.0 μM sphinganine:BSA, FIG. 4
Protocol: (§1) FIG. 4. Metabolism of sphinganine by MCF-7-wt and MCF-7-AdrR cells. Cells, in 100×20 mm culture dishes, were incubated with 5.0 μM sphinganine:BSA (prepared at a 1:1 molar ratio) for the times indicated. Lipids were extracted, a 100 μg lipid aliquot of each sample was resolved by TLC in solvent system II, and the TLC was charred as described in Example I. The data shown are representative of two independent experiments which gave similar results.
(§2) Lipid Mass Analysis--Cell lipids were analyzed by TLC separation and charring of the chromatogram. Briefly, total cellular lipids were extracted by the method of Bligh and Dyer (1959), and equal aliquots (by weight) from each sample were spotted on TLC plates. The plates were developed using solvent system I or II (see below), air-dried for 1 h and sprayed using a 35% solution of sulfuric acid in water. The lipids were charred by heating in an oven at 180° C. for 30 min, and resulting black bands were visualized and photographed. Bands can be further quantitated by photodensitometric scanning.

MCF-7-wt cells = experiment: Metabolism of sphinganine, MCF-7-wt cells (TLC charring); assay type: cell-based; details: 5.0 μM sphinganine:BSA, FIG. 4
Protocol: as §1, §2

[9] = system: lymphomas, particularly Hodgkin's disease; details: cited from earlier work
[10] = in vivo; cited from earlier work

Cc1cn([C@H]2C[C@H](N=[N+]=[N-])[C@@H](CO)O2)c(=O)[nH]c1=O [3'-azidothymidine]
sphingoglycolipid metabolism (in words) [1]: altered sphingoglycolipid metabolism

CS(=O)(=O)OCCCCOS(C)(=O)=O [Busulfan, 1,4-butanediol dimethanesulfonate]
hematologic remission [2]: Approximately 90 % of adults

COc1cccc2c1C(=O)c1c(O)c3c(c(O)c1C2=O)C[C@@](O)(C(=O)CO)C[C@@H]3O[C@H]1C[C@H](N)[C@H](O)[C@H](C)O1 [adriamycin, 5,12-Naphthacenedione, (8s-cis)-10-[(3-amino-2,3,6-trideoxy-a-L-lyxo-hexopyranosyl)oxy]-7,8,9,10-tetrahydro-6,8,11-trihydroxy-8-(hydroxyacetyl)-1-methoxy-hydrochloride]
cell death, adriamycin in the presence of tamoxifen (MCF-7-AdrR cells [3]; 5 μM adriamycin + 5.0 μM tamoxifen, 72 h, FIG. 15A): 60% | cytotoxicity at 5 µM (MCF-7-AdrR cells [3]; Homo sapiens, 72 h, read-out: cell death, adriamycin alone (maximal cytotoxic effect)): 28% | effect of the substance alone on cell survival (in words) (MCF-7-AdrR cells [3]; MCF-7-AdrR, alone): minor effect; also recorded: largely without influence | inhibition at 2.5 µM [4]: 17% | resistance of OVCAR-3 to the drug (in words) [5]: resistant | elimination half-life ([6]; in vivo, iv): about 30 hr | excreted into the urine ([6]; in vivo): a few percent | absorption (in words) ([6]; oral or unspecified): absorbed poorly

COc1cccc2c1C(=O)c1c(O)c3c(c(O)c1C2=O)C[C@@](O)(C(C)=O)C[C@@H]3O[C@H]1C[C@H](N)[C@H](O)[C@H](C)O1 [daunorubicin, 5,12-Naphthacenedione, (8S-cis)-8-acetyl-10-[(3-amino-2,3,6-trideoxy-a-L-lyxo-hexanopyranosyl)oxy]-7,8,9,10-tetrahydro-6,8,11-trihydroxy-10-methoxy-, hydrochloride]
ceramide elevation (in words) (P388 and U937 cells): stimulates ceramide elevation | distribution half-life ([6]; in vivo, iv): 0.75 h | elimination half-life ([6]; in vivo, iv): about 19 hr | secreted into the bile ([6]; in vivo, iv): ~40% | absorption (in words) ([6]; in vivo, po): poor

N[C@H](Cc1ccc(N(CCCl)CCCl)cc1)C(=O)O [medphalan]
activity against certain animal tumors relative to L-isomer (in words) (certain animal tumors): less active

CCCCCCCCCCCCCCC[C@H](O)[C@@H](N)CO [safingol]
reversal of MDR (in words) [7]: reversal of MDR | inhibition of PKC activity (in words) (PKC): inhibition of PKC activity

CCCCCCCCCCCCCCC[C@@H](O)[C@@H](N)CO [sphinganine]
glycosylceramide (lipid-1 and -2) synthesis/mass on sphinganine supplement, MCF-7-AdrR (in words) (MCF-7-AdrR cells [8]): accelerated synthesis; also recorded: strikingly more pronounced | synthesis of lipid X, MCF-7-wt (in words) (MCF-7-wt cells): synthesis of lipid X increased

CC[C@]1(O)C[C@@H]2CN(CCc3c([nH]c4ccccc34)[C@@](C(=O)OC)(c3cc4c(cc3OC)N(C)[C@H]3[C@@](O)(C(=O)OC)[C@H](OC(C)=O)[C@]5(CC)C=CCN6CC[C@]43[C@@H]65)C2)C1 [vinblastine]
significant improvement [9]: 50 to 90 % of cases | tolerability / toxicity (in words) [10]: painful irritation and ulceration | half-life of disappearance from plasma, first ([6]; in vivo, iv): approximately 1 hours | half-life of disappearance from plasma, second ([6]; in vivo, iv): ~20 h | Cmax ([6]; in vivo): ~400 µM | distribution in blood cells (in words) ([6]; in vivo): extensively concentrated in platelets | plasma protein binding (in words) ([6]; in vivo): bind to plasma proteins

Source: patent US5885786A, “Methods for screening of substances for inhibition of multidrug resistance” (priority 1996, dated 1999)
